# Measurements: patent publication US7645752B2, “Sulfonyl substituted 1H-indoles as ligands for the 5-hydroxytryptamine receptors” (Wyeth LLC, priority 2006, dated 2010)
# Target: T1, human cloned 5-HT6 receptors (Homo sapiens, UniProt P50406)
# T1 construct: expressed in transfected cells; host or cells: HeLa cells
# Test: 5-HT6 binding affinity, [3H]-LSD displacement on membranes of Hela cells
# Details: not given
# Protocol: The affinity of test compounds for the 5-HT6 receptor is evaluated in the following manner. Cultured Hela cells expressing human cloned 5-HT6 receptors are harvested and centrifuged at low speed (1,000×g) for 10.0 min to remove the culture media. The harvested cells are suspended in half volume of fresh physiological phosphate buffered saline solution and recentrifuged at the same speed. This operation is repeated. The collected cells are then homogenized in ten volumes of 50 mM Tris.HCl (pH 7.4) and 0.5 mM EDTA. The homogenate is centrifuged at 40,000×g for 30.0 min and the precipitate is collected. The obtained pellet is resuspended in 10 volumes of Tris.HCl buffer and recentrifuged at the same speed. The final pellet is suspended in a small volume of Tris.HCl buffer and the tissue protein content is determined in aliquots of 10-25 microliter volumes. […] The volume of the suspended cell membranes is adjusted to give a tissue protein concentration of 1.0 mg/mL of suspension. The prepared membrane suspension (10 times concentrated) is aliquoted in 1.0 mL volumes and stored at −70° C. until used in subsequent binding experiments.
# Binding experiments are performed in a 96 well microtiter plate format in a total volume of 200 microliters. […] The test compounds are added in 20.0 microliter volume.
# The bound complex caught on the filter disk is allowed to air dry and the radioactivity is measured in a Packard TopCount® equipped with six photomultiplier detectors, after the addition of 40.0 microliter Microscint®-20 scintillant to each shallow well.
# Binding in the presence of varying concentrations of test compound is expressed as a percentage of specific binding in the absence of test compound. The results are plotted as log % bound versus log concentration of the test compound.
# T1 sequence (P50406 whole entry): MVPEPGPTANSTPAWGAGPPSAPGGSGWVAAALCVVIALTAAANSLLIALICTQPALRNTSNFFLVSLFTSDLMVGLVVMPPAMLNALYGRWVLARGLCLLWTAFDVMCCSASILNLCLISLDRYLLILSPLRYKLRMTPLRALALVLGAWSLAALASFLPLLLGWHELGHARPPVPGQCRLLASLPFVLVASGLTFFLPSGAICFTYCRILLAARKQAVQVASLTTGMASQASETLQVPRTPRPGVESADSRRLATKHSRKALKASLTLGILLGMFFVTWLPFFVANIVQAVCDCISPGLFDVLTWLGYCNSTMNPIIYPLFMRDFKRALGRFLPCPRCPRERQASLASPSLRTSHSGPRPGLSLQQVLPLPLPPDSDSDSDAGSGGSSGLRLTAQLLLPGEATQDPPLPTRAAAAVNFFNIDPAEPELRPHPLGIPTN
row,Compound,Ki [nM]
1,"CCNCCc1ccc2c(S(=O)(=O)c3ccccc3)c[nH]c2c1 [Example 88, N-ethyl-N-{2-[3-(phenylsulfonyl)-1H-indol-6-yl]ethyl}amine]",96.3
2,"CCCNCCc1ccc2[nH]cc(S(=O)(=O)c3ccccc3)c2c1 [Example 2, N-{2-[3-(phenylsulfonyl)-1H-indol-5-yl]ethyl}-N-propylamine]",34.7
3,"NCCc1ccc2[nH]cc(S(=O)(=O)c3ccccc3)c2c1 [Example 12, {2-[3-(phenylsulfonyl)-1H-indol-5-yl]ethyl}amine]",7
4,"O=S(=O)(c1ccccc1)c1c[nH]c2c(CCNC3CC3)cccc12 [Example 22, N-{2-[3-(phenylsulfonyl)-1H-indol-7-yl]ethyl}cyclopropanamine]",5.5

# Same assay, conditions: Table 1; 5-HT6 binding, at 1 micromole; read-out: % inhibition at 1 micromole
row,inhibition at 1 µM [%],Compound
1,63,"CCC(CC)NCCc1ccc2c(S(=O)(=O)c3ccccc3)c[nH]c2c1 [Example 103, (1-Ethyl-propyl)-{2-[3-(phenylsulfonyl)-1H-indol-6-yl]-ethyl}-amine]"
2,72,"CC(C)CNCCc1ccc2c(S(=O)(=O)c3ccccc3)c[nH]c2c1 [Example 102, N-isobutyl-N-{2-[3-(phenylsulfonyl)-1H-indol-6-yl]ethyl}amine]"
3,78,"CC(C)NCCc1ccc2c(S(=O)(=O)c3ccccc3)c[nH]c2c1 [Example 90, N-{2-[3-(phenylsulfonyl)-1H-indol-6-yl]ethyl}propan-2-amine]"
4,75,"O=S(=O)(c1ccccc1)c1c[nH]c2cc(CCNC3CCC3)ccc12 [Example 92, N-{2-[3-(phenylsulfonyl)-1H-indol-6-yl]ethyl}cyclobutanamine]"

# The remaining lines, values behind:
row,Compound,inhibition at 1 µM [%]
1,"O=S(=O)(c1ccccc1)c1c[nH]c2cc(CCNC3CCCC3)ccc12 [Example 93, N-{2-[3-(phenylsulfonyl)-1H-indol-6-yl]ethyl}cyclopentanamine]",71
2,"CN(CCc1cccc2[nH]cc(S(=O)(=O)c3cccc(F)c3)c12)C1CCCCC1 [Example 72, N-cyclohexyl-N-methyl-N-{2-[3-(3-fluorophenylsulfonyl)-1H-indol-4-yl]ethyl}amine]",66
3,"CC(C)(C)CNCCc1cccc2[nH]cc(S(=O)(=O)c3cccc(F)c3)c12 [Example 81, N-(2,2-dimethylpropyl)-N-{2-[3-(3-fluorophenylsulfonyl)-1H-indol-4-yl]ethyl}amine]",74
4,"CCN(CC)CCc1cccc2[nH]cc(S(=O)(=O)c3cccc(F)c3)c12 [Example 73, N,N-diethyl-N-{2-[3-(3-fluorophenylsulfonyl)-1H-indol-4-yl]ethyl}amine]",78
5,"O=S(=O)(c1cccc(F)c1)c1c[nH]c2cccc(CCNC3CC3)c12 [Example 67, N-{2-[3-(3-fluorophenylsulfonyl)-1H-indol-4-yl]ethyl}cyclopropanamine]",77
6,"CCNCCc1cccc2[nH]cc(S(=O)(=O)c3cccc(F)c3)c12 [Example 64, N-ethyl-N-{2-[3-(3-fluorophenylsulfonyl)-1H-indol-4-yl]ethyl}amine]",57
7,"CNCCc1cccc2[nH]cc(S(=O)(=O)c3cccc(F)c3)c12 [Example 63, N-methyl-N-{2-[3-(3-fluorophenylsulfonyl)-1H-indol-4-yl]ethyl}amine]",61
8,"O=S(=O)(c1ccccc1)c1c[nH]c2cc(CCNC3CCCCC3)ccc12 [Example 94, N-{2-[3-(phenylsulfonyl)-1H-indol-6-yl]ethyl}cyclohexanamine]",51
9,"O=S(=O)(c1ccccc1)c1c[nH]c2cc(CCN3CCCCC3)ccc12 [Example 99, 3-(phenylsulfonyl)-6-(2-piperidin-1-ylethyl)-1H-indole]",79
10,"CN(CCc1ccc2c(S(=O)(=O)c3ccccc3)c[nH]c2c1)C1CCCCC1 [Example 96, N-cyclohexyl-N-methyl-N-{2-[3-(phenylsulfonyl)-1H-indol-6-yl]ethyl}amine]",75

# Same assay, conditions: Table 1; [3H]-LSD 3.0 nM, Hela cell membranes; read-out: Ki (nM) @ 5-HT6 receptor
row,Ki [nM],Compound
1,348,"NCCc1cccc2[nH]cc(S(=O)(=O)c3cccc(F)c3)c12 [Example 85, {2-[3-(3-fluorophenylsulfonyl)-1H-indol-4-yl]ethyl}amine]"
2,41,"O=S(=O)(c1ccccc1)c1c[nH]c2cc(CCNC3CC3)ccc12 [Example 91, N-{2-[3-(phenylsulfonyl)-1H-indol-6-yl]ethyl}cyclopropanamine]"
3,150,"CCCNCCc1ccc2c(S(=O)(=O)c3ccccc3)c[nH]c2c1 [Example 89, N-{2-[3-(phenylsulfonyl)-1H-indol-6-yl]ethyl}-N-propylamine]"
4,13,"O=S(=O)(c1ccccc1)c1c[nH]c2c(CCN3CCCCC3)cccc12 [Example 27, 3-(phenylsulfonyl)-7-(2-piperidin-1-ylethyl)-1H-indole]"
5,10.5,"CNCCc1ccc2c(S(=O)(=O)c3ccccc3)c[nH]c2c1 [Example 87, N-methyl-N-{2-[3-(phenylsulfonyl)-1H-indol-6-yl]ethyl}amine]"
6,74,"O=S(=O)(c1ccccc1)c1c[nH]c2cc(CCN3CCC3)ccc12 [Example 108, 6-(2-Azetidin-1-yl-ethyl)-3-phenylsulfonyl-1H-indole]"
7,9.4,"CC(C)NCCc1cccc2c(S(=O)(=O)c3ccccc3)c[nH]c12 [Example 21, N-{2-[3-(phenylsulfonyl)-1H-indol-7-yl]ethyl}propan-2-amine]"
8,21,"CCN(CC)CCc1cccc2c(S(=O)(=O)c3ccccc3)c[nH]c12 [Example 25, N,N-diethyl-N-{2-[3-(phenylsulfonyl)-1H-indol-7-yl]ethyl}amine]"
9,41.3,"CN(C)CCc1ccc2c(S(=O)(=O)c3ccccc3)c[nH]c2c1 [Example 86, N,N-dimethyl-N-{2-[3-(phenylsulfonyl)-1H-indol-6-yl]ethyl}amine]"
10,15,"O=S(=O)(c1ccccc1)c1c[nH]c2ccc(CCNC3CC3)cc12 [Example 4, N-{2-[3-(phenylsulfonyl)-1H-indol-5-yl]ethyl}cyclopropanamine]"
11,1.5,"NCCc1cccc2c(S(=O)(=O)c3ccccc3)c[nH]c12 [Example 29, {2-[3-(phenylsulfonyl)-1H-indol-7-yl]ethyl}amine]"
12,10.3,"O=S(=O)(c1ccccc1)c1c[nH]c2ccc(CCN3CCCCC3)cc12 [Example 10, 3-(phenylsulfonyl)-5-(2-piperidin-1-ylethyl)-1H-indole]"
13,9.1,"CCCNCCc1cccc2c(S(=O)(=O)c3ccccc3)c[nH]c12 [Example 20, N-{2-[3-(phenylsulfonyl)-1H-indol-7-yl]ethyl}-N-propylamine]"
14,28,"O=S(=O)(c1ccccc1)c1c[nH]c2ccc(CCN3CCCC3)cc12 [Example 9, 3-(phenylsulfonyl)-5-(2-pyrrolidin-1-ylethyl)-1H-indole]"
15,7.5,"O=S(=O)(c1ccccc1)c1c[nH]c2c(CCN3CCNCC3)cccc12 [Example 30, 3-(phenylsulfonyl)-7-(2-piperazin-1-ylethyl)-1H-indole]"
16,10,"NCCc1ccc2c(S(=O)(=O)c3ccccc3)c[nH]c2c1 [Example 109, {2-[3-(phenylsulfonyl)-1H-indol-6-yl]ethyl}amine]"
17,2.3,"CN(C)CCc1cccc2c(S(=O)(=O)c3ccccc3)c[nH]c12 [Example 18, N,N-dimethyl-N-{2-[3-(phenylsulfonyl)-1H-indol-7-yl]ethyl}amine]"

# Second part, the compound before the results:
row,Compound,Ki [nM]
1,"O=S(=O)(c1cccc(F)c1)c1c[nH]c2cccc(CCN3CCCC3)c12 [Example 74, 3-(3-fluorophenylsulfonyl)-4-(2-pyrrolidin-1-ylethyl)-1H-indole]",72
2,"O=S(=O)(c1ccccc1)c1c[nH]c2ccc(CCNCc3ccccc3)cc12 [Example 6, N-benzyl-N-{2-[3-(phenylsulfonyl)-1H-indol-5-yl]ethyl}amine]",24
3,"O=S(=O)(c1ccccc1)c1c[nH]c2ccc(CCN3CCOCC3)cc12 [Example 11, 5-(2-morpholin-4-ylethyl)-3-(phenylsulfonyl)-1H-indole]",39
4,"CC(C)CNCCc1cccc2[nH]cc(S(=O)(=O)c3cccc(F)c3)c12 [Example 77, N-isobutyl-N-{2-[3-(3-fluorophenylsulfonyl)-1H-indol-4-yl]ethyl}amine]",14
5,"O=S(=O)(c1ccccc1)c1c[nH]c2cc(CCNCC3CCCO3)ccc12 (stereo not shown) [Example 107, N-{2-[3-(phenylsulfonyl)-1H-indol-6-yl]ethyl}-N-((tetrahydrofur-2-yl)methyl)amine]",85
6,"CCC(CC)NCCc1cccc2[nH]cc(S(=O)(=O)c3cccc(F)c3)c12 [Example 78, (1-Ethyl-propyl)-{2-[3-(3-fluorophenylsulfonyl)-1H-indol-4-yl]-ethyl}-amine]",80
7,"CCC(C)CNCCc1cccc2[nH]cc(S(=O)(=O)c3cccc(F)c3)c12 (stereo not shown) [Example 79, {2-[3-(3-Fluorophenylsulfonyl)-1H-indol-4-yl]-ethyl}-(2-methyl-butyl)-amine]",120
8,"CC(NCCc1cccc2[nH]cc(S(=O)(=O)c3cccc(F)c3)c12)C(C)(C)C (stereo not shown) [Example 80, N-{2-[3-(3-fluorophenylsulfonyl)-1H-indol-4-yl]ethyl}-N-(1,2,2-trimethylpropyl)amine]",13
